Test results taken from publication PMC5029711, “Functional characterization and anti-cancer action of the clinical phase II cardiac Na^+/K^+ ATPase inhibitor istaroxime: in vitro and in vivo properties and cross talk with the membrane androgen receptor” (Oncotarget, 2016).

Biological target: T1, Na^+/K^+ ATPase
T1 construct: gene ATP1A1; enzyme isolated from porcine cerebral cortex
Experiment: ATPase enzymatic activity assay (Sigma) with isolated porcine cerebral cortex enzyme
Assay type: biochemical, Sus scrofa

C[C@]12CCC(=NOCCN)C[C@@H]1C(=O)C[C@@H]1[C@@H]2CC[C@]2(C)C(=O)CC[C@@H]12 [istaroxime, (E, Z) 3-(2-aminoethoxyimino)-5α-androstane-6, 17-trione]
IC50: 408 nM
